Assay results as given in PubChem BioAssay AID248 (DTP/NCI, 2004).
Where “and” joins values, the source holds several entries; their conditions need not be identical. Equal values may be shown once. Toxic doses and inconclusive results are not listed. Cut-off read from the data, not from the text of the source: active = T/C of 150% or more; inactive = T/C below 125%.

System: L1210 leukemia ip in BDF1 mice, survival T/C
Test: NCI In Vivo Anticancer Drug Screen. Data for tumor model L1210 Leukemia (intraperitoneal) in B6D2F1 (BDF1) mice
Settings: higher = longer survival
How it was run: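 Read-out is survival time, reported as the treated-group measurement over the vehicle-control measurement.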

[1] = endpoint: mean survival time, dose: 50.0 mg/kg/injection, schedule: Q01DX009 (ip), vehicle: saline with Tween-80
[2] = endpoint: mean survival time, dose: 100.0 mg/kg/injection, schedule: Q01DX009 (ip), vehicle: saline with Tween-80

Measured: T/C

C[C@]12C=CC(=O)C=C1CC[C@@H]1[C@@H]2C(=O)C[C@@]2(C)[C@H]1CC[C@]2(O)C(=O)CO
inactive: endpoint: mean survival time, dose: 0.25 mg/kg/injection, schedule: Q01DX009 (ip), vehicle: water 99 % of control | endpoint: mean survival time, dose: 0.5 mg/kg/injection, schedule: Q01DX009 (ip), vehicle: water 103 % of control | endpoint: mean survival time, dose: 1.0 mg/kg/injection, schedule: Q01DX009 (ip), vehicle: water 96 % of control and 97 % of control | endpoint: mean survival time, dose: 2.0 mg/kg/injection, schedule: Q01DX009 (ip), vehicle: water 99 % of control and 101 % of control | endpoint: mean survival time, dose: 2.5 mg/kg/injection, schedule: Q01DX009 (ip), vehicle: water 101 % of control | endpoint: mean survival time, dose: 5.0 mg/kg/injection, schedule: Q01DX009 (ip), vehicle: water 104 % of control | endpoint: mean survival time, dose: 6.25 mg/kg/injection, schedule: Q01DX014 (sc), vehicle: steriod suspending solution 103 % of control and 104 % of control | endpoint: mean survival time, dose: 12.5 mg/kg/injection, schedule: Q01DX014 (sc), vehicle: steriod suspending solution 100 % of control and 109 % of control | endpoint: mean survival time, dose: 25.0 mg/kg/injection, schedule: Q01DX014 (sc), vehicle: steriod suspending solution 103 % of control and 105 % of control | endpoint: mean survival time, dose: 25.0 mg/kg/injection, schedule: Q01DX Z (sc), vehicle: steriod suspending solution 97 % of control and 102 % of control and 108 % of control | [1] 102 % of control | endpoint: mean survival time, dose: 50.0 mg/kg/injection, schedule: Q01DX Z (sc), vehicle: steriod suspending solution 100 % of control (2×) and 112 % of control | endpoint: mean survival time, dose: 100.0 mg/kg/injection, schedule: Q01DX009 (ip), vehicle: Klucel (hydroxypropylcellulose) (HPC) 107 % of control | [2] 97 % of control | endpoint: mean survival time, dose: 100.0 mg/kg/injection, schedule: Q01DX009 (ip), vehicle: saline 100 % of control | endpoint: mean survival time, dose: 100.0 mg/kg/injection, schedule: Q01DX009 (ip), vehicle: steriod suspending solution 104 % of control | endpoint: mean survival time, dose: 100.0 mg/kg/injection, schedule: Q01DX009 (sc), vehicle: Klucel (hydroxypropylcellulose) (HPC) 91 % of control | endpoint: mean survival time, dose: 100.0 mg/kg/injection, schedule: Q01DX009 (sc), vehicle: saline 97 % of control | endpoint: mean survival time, dose: 100.0 mg/kg/injection, schedule: Q01DX009 (sc), vehicle: steriod suspending solution 100 % of control | endpoint: mean survival time, dose: 100.0 mg/kg/injection, schedule: Q01DX Z (sc), vehicle: steriod suspending solution 98 % of control and 101 % of control | endpoint: mean survival time, dose: 100.0 mg/kg/injection, schedule: Q04DX003 (ip), vehicle: saline with Tween-80 106 % of control | endpoint: mean survival time, dose: 120.0 mg/kg/injection, schedule: Q01DX001 (sc), vehicle: steriod suspending solution 106 % of control | endpoint: mean survival time, dose: 180.0 mg/kg/injection, schedule: Q01DX001 (sc), vehicle: steriod suspending solution 107 % of control | endpoint: mean survival time, dose: 200.0 mg/kg/injection, schedule: Q01DX009 (ip), vehicle: Klucel (hydroxypropylcellulose) (HPC) 100 % of control | endpoint: mean survival time, dose: 200.0 mg/kg/injection, schedule: Q01DX009 (ip), vehicle: saline with Tween-80 102 % of control | endpoint: mean survival time, dose: 200.0 mg/kg/injection, schedule: Q01DX009 (ip), vehicle: saline 104 % of control | endpoint: mean survival time, dose: 200.0 mg/kg/injection, schedule: Q01DX009 (ip), vehicle: steriod suspending solution 104 % of control | endpoint: mean survival time, dose: 200.0 mg/kg/injection, schedule: Q01DX009 (sc), vehicle: Klucel (hydroxypropylcellulose) (HPC) 110 % of control | endpoint: mean survival time, dose: 200.0 mg/kg/injection, schedule: Q01DX009 (sc), vehicle: saline 105 % of control | endpoint: mean survival time, dose: 200.0 mg/kg/injection, schedule: Q01DX009 (sc), vehicle: steriod suspending solution 102 % of control | endpoint: mean survival time, dose: 200.0 mg/kg/injection, schedule: Q01DX Z (sc), vehicle: steriod suspending solution 94 % of control and 96 % of control | endpoint: mean survival time, dose: 200.0 mg/kg/injection, schedule: Q04DX003 (ip), vehicle: saline with Tween-80 98 % of control | endpoint: mean survival time, dose: 240.0 mg/kg/injection, schedule: Q01DX001 (sc), vehicle: steriod suspending solution 104 % of control | endpoint: mean survival time, dose: 400.0 mg/kg/injection, schedule: Q01DX009 (ip), vehicle: Klucel (hydroxypropylcellulose) (HPC) 100 % of control | endpoint: mean survival time, dose: 400.0 mg/kg/injection, schedule: Q01DX009 (ip), vehicle: saline 101 % of control | endpoint: mean survival time, dose: 400.0 mg/kg/injection, schedule: Q01DX009 (ip), vehicle: steriod suspending solution 89 % of control | endpoint: mean survival time, dose: 400.0 mg/kg/injection, schedule: Q01DX009 (sc), vehicle: Klucel (hydroxypropylcellulose) (HPC) 97 % of control | endpoint: mean survival time, dose: 400.0 mg/kg/injection, schedule: Q01DX009 (sc), vehicle: saline 109 % of control | endpoint: mean survival time, dose: 400.0 mg/kg/injection, schedule: Q01DX009 (sc), vehicle: steriod suspending solution 96 % of control | endpoint: mean survival time, dose: 400.0 mg/kg/injection, schedule: Q01DX Z (sc), vehicle: steriod suspending solution 100 % of control | endpoint: mean survival time, dose: 400.0 mg/kg/injection, schedule: Q04DX003 (ip), vehicle: saline with Tween-80 104 % of control | endpoint: mean survival time, dose: 500.0 mg/kg/injection, schedule: Q01DX001 (ip), vehicle: water 98 % of control and 103 % of control | endpoint: mean survival time, dose: 800.0 mg/kg/injection, schedule: Q01DX009 (ip), vehicle: Klucel (hydroxypropylcellulose) (HPC) 105 % of control | endpoint: mean survival time, dose: 800.0 mg/kg/injection, schedule: Q01DX009 (ip), vehicle: saline 110 % of control | endpoint: mean survival time, dose: 800.0 mg/kg/injection, schedule: Q01DX009 (ip), vehicle: steriod suspending solution 95 % of control | endpoint: mean survival time, dose: 800.0 mg/kg/injection, schedule: Q01DX009 (sc), vehicle: Klucel (hydroxypropylcellulose) (HPC) 103 % of control | endpoint: mean survival time, dose: 800.0 mg/kg/injection, schedule: Q01DX009 (sc), vehicle: saline 104 % of control | endpoint: mean survival time, dose: 800.0 mg/kg/injection, schedule: Q01DX009 (sc), vehicle: steriod suspending solution 102 % of control | endpoint: mean survival time, dose: 1000.0 mg/kg/injection, schedule: Q01DX001 (ip), vehicle: water 97 % of control and 102 % of control | endpoint: mean survival time, dose: 2000.0 mg/kg/injection, schedule: Q01DX001 (ip), vehicle: water 96 % of control and 109 % of control | endpoint: median survival time, dose: 25.0 mg/kg/injection, schedule: Q01DX009 (ip), vehicle: water 100 % of control and 90 % of control | endpoint: median survival time, dose: 50.0 mg/kg/injection, schedule: Q01DX009 (ip), vehicle: water 95 % of control and 100 % of control | endpoint: median survival time, dose: 100.0 mg/kg/injection, schedule: Q01DX009 (ip), vehicle: water 95 % of control and 100 % of control | endpoint: median survival time, dose: 108.0 mg/kg/injection, schedule: Q01DX009 (ip), vehicle: water 100 % of control and 90 % of control | endpoint: median survival time, dose: 180.0 mg/kg/injection, schedule: Q01DX009 (ip), vehicle: water 95 % of control and 90 % of control | endpoint: median survival time, dose: 200.0 mg/kg/injection, schedule: Q01DX009 (ip), vehicle: water 95 % of control and 100 % of control | endpoint: median survival time, dose: 300.0 mg/kg/injection, schedule: Q01DX009 (ip), vehicle: water 100 % of control | endpoint: median survival time, dose: 375.0 mg/kg/injection, schedule: Q01DX001 (ip), vehicle: water 100 % of control | endpoint: median survival time, dose: 400.0 mg/kg/injection, schedule: Q01DX009 (ip), vehicle: water 95 % of control and 110 % of control | endpoint: median survival time, dose: 400.0 mg/kg/injection, schedule: Q04DX003 (ip), vehicle: saline 111 % of control | endpoint: median survival time, dose: 500.0 mg/kg/injection, schedule: Q01DX009 (ip), vehicle: water 90 % of control | endpoint: median survival time, dose: 600.0 mg/kg/injection, schedule: Q04DX003 (ip), vehicle: saline 104 % of control | endpoint: median survival time, dose: 750.0 mg/kg/injection, schedule: Q01DX001 (ip), vehicle: water 100 % of control | endpoint: median survival time, dose: 800.0 mg/kg/injection, schedule: Q01DX009 (ip), vehicle: water 100 % of control | endpoint: median survival time, dose: 833.0 mg/kg/injection, schedule: Q01DX009 (ip), vehicle: water 90 % of control | endpoint: median survival time, dose: 1388.0 mg/kg/injection, schedule: Q01DX009 (ip), vehicle: water 90 % of control | endpoint: median survival time, dose: 1500.0 mg/kg/injection, schedule: Q01DX001 (ip), vehicle: water 100 % of control | endpoint: median survival time, dose: 3000.0 mg/kg/injection, schedule: Q01DX001 (ip), vehicle: water 100 % of control and 102 % of control

Cc1ccc(Nc2nc(N)nc(N)c2Cl)cc1
inactive: [1] 94 % of control | [2] 91 % of control
